As usually defined, the IC50 is the midpoint of a concentration-inhibition curve.

The structures appear in SMILES notation. A value given as a limit tells only on which side of the number the result lay.

In the assay the target is T1, human ASK1 (Homo sapiens, UniProt Q99683).
T1 construct: a 2.2 kb DNA fragment containing an ASK1 gene was recovered from the gel; made in house; host or cells: Sf-21 insect cells, recombinant baculovirus (pFASTBAC1, Bac-to-Bac)
T1 sequence (Q99683 649-1374 limits assumed): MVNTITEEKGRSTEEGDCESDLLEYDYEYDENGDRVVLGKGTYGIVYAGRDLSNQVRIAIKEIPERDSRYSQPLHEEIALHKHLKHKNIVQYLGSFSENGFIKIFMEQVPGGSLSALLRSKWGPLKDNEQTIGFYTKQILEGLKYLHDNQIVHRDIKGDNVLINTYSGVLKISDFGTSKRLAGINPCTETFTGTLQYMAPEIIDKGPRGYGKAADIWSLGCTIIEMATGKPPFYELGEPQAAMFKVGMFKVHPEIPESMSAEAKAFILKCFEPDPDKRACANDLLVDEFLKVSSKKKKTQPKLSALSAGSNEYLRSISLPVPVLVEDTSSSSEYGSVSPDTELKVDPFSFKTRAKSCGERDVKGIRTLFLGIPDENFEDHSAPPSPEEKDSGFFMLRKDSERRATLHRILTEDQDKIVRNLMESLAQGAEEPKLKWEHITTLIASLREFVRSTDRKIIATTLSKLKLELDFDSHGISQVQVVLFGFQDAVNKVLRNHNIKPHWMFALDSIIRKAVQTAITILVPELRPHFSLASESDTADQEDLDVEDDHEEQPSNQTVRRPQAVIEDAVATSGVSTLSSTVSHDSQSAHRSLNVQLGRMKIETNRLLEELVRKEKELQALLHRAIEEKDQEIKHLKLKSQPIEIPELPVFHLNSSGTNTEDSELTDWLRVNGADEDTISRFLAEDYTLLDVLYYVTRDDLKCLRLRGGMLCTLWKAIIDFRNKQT
Nature of the assay: Scintillation assay measuring inhibition of ASK1 phosphorylation of myelin basic protein. Type of assay: biochemical. As to conditions: active ASK1 protein 30 ng, myelin basic protein 1 μg, [γ-32P]ATP, room temperature 30 min; values given as ranges; read-out: Enzyme Activity IC50. The protocol:
Cloning of cDNA encoding human ASK1 was conducted by PCR using primers, 5′-[…] AGAGAAGGGGA-3′ (SEQ ID NO: 1) and 5′-[…]-3′ (SEQ ID NO: 2), from human heart cDNA library (Becton, Dickinson and Company). The PCR product was subjected to agarose gel (1%) electrophoresis, a 2.2 kb DNA fragment containing an ASK1 gene was recovered from the gel, and then digested with restriction enzymes, NotI and SalI, and inserted into a plasmid pFASTBAC1 (Invitrogen) to prepare a plasmid pFB-ASK1. The insert was verified by sequencing. Recombinant baculovirus was prepared according to the procedure of the Bac-to-Bac baculovirus expression system (Invitrogen).
Sf-21 cells were seeded to achieve 1×10^6 cells/mL in 100 mL of Sf-900 II SFM medium (Invitrogen) which contains 10% fetal calf serum and then cultured at 27° C. for 24 hrs. To express ASK1 in cells, 0.15 mL of the recombinant baculovirus virus stock was added to cells, and the then cultured for 60 hrs. The cells were separated from the culture solution by centrifugation at 3000 rpm for 10 min and washed once with PBS. The cells were suspended in 10 mL of lysis buffer (25 mM HEPES (pH 7.5), 1% Triton X, 130 mM NaCl, 1 mM EDTA, 1 mM DTT, 25 mM β-glycerophosphate, Protease inhibitor complete (Roche), 1 mM sodium orthovanadate) and ruptured by four times of treatment with a homogenizer (POLYTRON) at 20000 rpm for 30 seconds. Active ASK1 protein was purified from a supernatant obtained by centrifugal separation at 40000 rpm for 45 min using anti-FLAG M2 Affinity Gel (Sigma).
The test compounds (2.5 μl) dissolved in DMSO were added to wells containing 37.5 μl of the reaction solution (25 mM HEPES (pH 7.5), 10 mM magnesium acetate, 1 mM DTT) including 30 ng of active ASK1 protein and 1 μg of myelin basic protein (Wako), and incubated at room temperature for 5 min. To start the reaction, 10 μL of ATP solution (2.5 μM ATP, 0.1 μCi [γ-^32P]ATP) was added to wells. After incubating at room temperature for 30 min, the reaction was terminated by adding 50 μl of 20% TCA solution. The reaction solution was incubated at 4° C. for 30 min and an acid-insoluble fraction was transferred onto a GF/C filter (Packard) with Cell Harvester (Packard), and washed with 250 mM phosphoric acid. After drying at 45° C. for 60 min., 40 μL of Microscint 0 (Packard) was added and the radioactivity was measured with TopCount (Packard). The concentrations (IC50 value) of the test compounds necessary for 50% inhibition of kinase activity were calculated by PRISM 3.0 (Graphpad Software).
The enzyme activities of selected compounds of the present invention against ASK1 were determined using the assay disclosed in Example A and B. The resulted pIC50 values are reported in Table 1.
For the compound `CN(C)c1cc(NC(=O)c2ccc(C(C)(C)C)cc2)nc2ccnn12` [Compound 125, 4-tert-butyl-N-(7-(dimethylamino)pyrazolo[1,5-a]pyrimidin-5-yl)benzamide], the IC50 is < 100 nM.
For the compound `CC(C)(O)c1ccc(C(=O)Nc2cc(N3CC[C@@H](O)C3)n3nccc3n2)cc1` [Compound 69, (R)-4-(2-hydroxypropan-2-yl)-N-(7-(3-hydroxypyrrolidin-1-yl)pyrazolo[1,5-a]pyrimidin-5-yl)benzamide], the IC50 was in the range of 100 to 1000 nM.
With `CSc1ccc(-c2cc(NC(=O)c3ccc(C(C)(C)O)cc3)nc3ccnn23)cc1` [Compound 23, 4-(2-hydroxypropan-2-yl)-N-(7-(4-(methylthio)phenyl)pyrazolo[1,5-a]pyrimidin-5-yl)benzamide] the figure was < 100 nM; with `CC(C)(O)c1ccc(C(=O)Nc2cc(N3CCCC3)n3nccc3n2)cc1` [Compound 87, 4-(2-hydroxypropan-2-yl)-N-(7-(pyrrolidin-1-yl)pyrazolo[1,5-a]pyrimidin-5-yl)benzamide], < 100 nM.
Consider `CC(C)(C)c1ccc(C(=O)Nc2cc(-c3cccc(CC#N)c3)n3nccc3n2)cc1` [Compound 34, 4-tert-butyl-N-{7-[3-(cyanomethyl)phenyl]pyrazolo[1,5-a]pyrimidin-5-yl}benzamide], for which the IC50 was < 100 nM.
With `CC(C)(C)c1ccc(C(=O)Nc2cc(N3CCCCC3CCO)n3nccc3n2)cc1` (stereo not shown) [Compound 105, 4-tert-butyl-N-(7-(2-(2-hydroxyethyl)piperidin-1-yl)pyrazolo[1,5-a]pyrimidin-5-yl)benzamide] the figure was < 100 nM; with `CC(C)(O)c1ccc(C(=O)Nc2cc(-c3cccc(NS(C)(=O)=O)c3)n3nccc3n2)cc1` [Compound 17, 4-(2-Hydroxypropan-2-yl)-N-(7-(3-(methylsulfonamido)phenyl)pyrazolo[1,5-a]pyrimidin-5-yl)benzamide], 100 to 1000 nM; with `CC(C)(O)c1ccc(C(=O)Nc2cc(N3CC[C@H](O)C3)n3nccc3n2)cc1` [Compound 70, (S)-4-(2-hydroxypropan-2-yl)-N-(7-(3-hydroxypyrrolidin-1-yl)pyrazolo[1,5-a]pyrimidin-5-yl)benzamide], 100 to 1000 nM.
For `CC(C)(O)c1ccc(C(=O)Nc2cc(N3CCCCC3CCO)n3nccc3n2)cc1` (stereo not shown) [Compound 74, N-(7-(2-(2-hydroxyethyl)piperidin-1-yl)pyrazolo[1,5-a]pyrimidin-5-yl)-4-(2-hydroxypropan-2-yl)benzamide] the value was 100 to 1000 nM; for `CC(C)(O)c1ccc(C(=O)Nc2cc(-c3ccc(C(N)=O)cc3)n3nccc3n2)cc1` [Compound 22, N-(7-(4-carbamoylphenyl)pyrazolo[1,5-a]pyrimidin-5-yl)-4-(2-hydroxypropan-2-yl)benzamide], 100 to 1000 nM; for `CC(C)(C)c1ccc(C(=O)Nc2cc(-c3cccs3)n3nccc3n2)cc1` [Compound 2, 4-tert-butyl-N-(7-(thiophen-2-yl)pyrazolo[1,5-a]pyrimidin-5-yl)benzamide], < 100 nM.
For `Cc1cc2nc(NC(=O)c3ccc(C(C)(C)CO)cc3)cc(N3CCC[C@H]3CO)n2n1` [Compound 95, (S)-4-(1-hydroxy-2-methylpropan-2-yl)-N-(7-(2-(hydroxymethyl)pyrrolidin-1-yl)-2-methylpyrazolo[1,5-a]pyrimidin-5-yl)benzamide] the value was 100 to 1000 nM.
Take `Cc1cc2nc(N)cc(-c3cccc(CO)c3)n2n1` [Compound 173, (3-(5-amino-2-methylpyrazolo[1,5-a]pyrimidin-7-yl)phenyl)methanol]: the IC50 was > 1000 nM.
For `Cc1ccc(-c2cc(NC(=O)c3ccc(C(C)(C)O)cc3)nc3ccnn23)cc1` [Compound 20, 4-(2-Hydroxypropan-2-yl)-N-(7-p-tolylpyrazolo[1,5-a]pyrimidin-5-yl)benzamide] the value was < 100 nM; for `CC(=O)NC1CCN(c2cc(NC(=O)[C@@H]3C[C@H]3c3ccccc3)nc3cc(C)nn23)CC1` [Compound 356, (1R,2R)—N-(7-(4-acetamidopiperidin-1-yl)-2-methylpyrazolo[1,5-a]pyrimidin-5-yl)-2-phenylcyclopropanecarboxamide], < 100 nM; for `CC(C)(C)c1ccc(C(=O)Nc2cc(-c3cccc(CCO)c3)n3nccc3n2)cc1` [Compound 10, 4-tert-butyl-N-(7-(3-(2-hydroxyethyl)phenyl)pyrazolo[1,5-a]pyrimidin-5-yl)benzamide], < 100 nM.
With `CC(C)(O)c1ccc(C(=O)Nc2cc(-c3ccccc3)n3nccc3n2)cc1` [Compound 16, 4-(2-Hydroxypropan-2-yl)-N-(7-phenylpyrazolo[1,5-a]pyrimidin-5-yl)benzamide] the figure was < 100 nM; with `CC(C)(O)c1ccc(C(=O)Nc2cc(N3CCC(CCO)CC3)n3nccc3n2)cc1` [Compound 71, N-(7-(4-(2-hydroxyethyl)piperidin-1-yl)pyrazolo[1,5-a]pyrimidin-5-yl)-4-(2-hydroxypropan-2-yl)benzamide], < 100 nM.
With `CC(C)(O)c1ccc(C(=O)Nc2cc(-c3ccc(C(F)(F)F)cc3)n3nccc3n2)cc1` [Compound 24, 4-(2-hydroxypropan-2-yl)-N-(7-(4-(trifluoromethyl)phenyl)pyrazolo[1,5-a]pyrimidin-5-yl)benzamide] the figure was 100 to 1000 nM; with `Cc1cc2nc(NC(=O)[C@@H]3C[C@H]3c3ccc(F)cc3)cc(-c3ccccc3)n2n1` (racemic) [Compound 359, trans-2-(4-Fluorophenyl)-N-(2-methyl-7-phenylpyrazolo[1,5-a]pyrimidin-5-yl)cyclopropanecarboxamide], < 100 nM; with `CC(C)(C)c1ccc(C(=O)Nc2cc(-c3cccc(CO)c3)n3nccc3n2)cc1` [Compound 5, 4-tert-butyl-N-(7-(3-(hydroxymethyl)phenyl)pyrazolo[1,5-a]pyrimidin-5-yl)benzamide], < 100 nM.
On to `CC(C)(O)c1ccc(C(=O)Nc2cc(-c3cccc(CO)c3)n3nccc3n2)cc1` [Compound 6, N-(7-(3-(hydroxymethyl)phenyl)pyrazolo[1,5-a]pyrimidin-5-yl)-4-(2-hydroxypropan-2-yl)benzamide], for which the IC50 is < 100 nM.
With `CC(=O)Nc1ccc(-c2cc(NC(=O)c3ccc(C(C)(C)C)cc3)nc3ccnn23)cn1` [Compound 14, N-(7-(6-Acetamidopyridin-3-yl)pyrazolo[1,5-a]pyrimidin-5-yl)-4-tert-butylbenzamide] the figure was 100 to 1000 nM; with `CC(C)(O)c1ccc(C(=O)Nc2cc(N3CCC[C@H](C(N)=O)C3)n3nccc3n2)cc1` [Compound 85, (S)-1-(5-(4-(2-hydroxypropan-2-yl)benzamido)pyrazolo[1,5-a]pyrimidin-7-yl)piperidine-3-carboxamide], 100 to 1000 nM; with `Cc1cc2nc(NC(=O)c3ccc(C(C)(C)C)cc3)cc(-c3cccc(CO)c3)n2n1` [Compound 1, 4-tert-butyl-N-(7-(3-(hydroxymethyl)phenyl)-2-methylpyrazolo[1,5-a]pyrimidin-5-yl)benzamide], < 100 nM.

Source of the values: US8921358B2, “Apoptosis signal-regulating kinase 1 inhibitors” (Takeda Pharmaceutical Company Limited, priority 2008, dated 2014).
